# pIC50: −log10 of the molar value.
# Assays:
# MCF7 [1] = experiment: Cytotoxicity against human MCF7 cells assessed as cell viability at 25 uM after 3 days by MTS assay; format: functional; settings: MCF7, 72 h, read-out: Activity
# HT-29 [2] = experiment: Cytotoxicity against human HT-29 cells assessed as cell viability at 25 uM after 3 days by MTS assay; format: functional; settings: HT-29, 72 h, read-out: Activity
# Nucleic Acid = experiment: Binding affinity to Sheared herring sperm DNA assessed as remaining displaced EtBr by fluorescent intercalator displacement assay; format: nucleic-acid assay; set-up: concentration or dose not given beside the values
# HepG2 [3] = experiment: Cytotoxicity against human HepG2 cells assessed as cell viability at 25 uM after 3 days by MTS assay; format: functional; settings: HepG2, 72 h, read-out: Activity
# HepG2 [4] = experiment: Cytotoxicity against human HepG2 cells after 3 days by MTS assay; format: functional, cell-based; settings: HepG2, 72 h
# HT-29 [5] = experiment: Cytotoxicity against human HT-29 cells after 3 days by MTS assay; format: functional, cell-based; settings: HT-29, 72 h
# MCF7 [6] = experiment: Cytotoxicity against human MCF7 cells after 3 days by MTS assay; format: functional, cell-based; settings: MCF7, 72 h
# MCF7 [7] = experiment: Cytotoxicity against human MCF7 cells at 25 µM after 3 days by MTS assay; settings: MCF7, 72 h
Activity (Nucleic Acid),SMILES,viability at 25 µM (MCF7 [1]),viability at 25 µM (HT-29 [2]),viability at 25 µM (HepG2 [3]),pIC50 (HepG2 [4]),pIC50 (HT-29 [5]),pIC50 (MCF7 [6]),cell viability at 25 µM (MCF7 [7])
68.5%,C[C@@H]1O[C@@H](OCC#Cc2c(-c3ccccc3)oc3ccccc23)CC[C@@H]1N,< 1%,< 1%,< 1%,,,,
,C[C@@H]1O[C@@H](OCC#Cc2c(-c3ccccc3)oc3ccccc23)CC[C@@H]1NCc1ccc[nH]1,14%,< 1%,< 1%,4.68,4.95,4.74,
,C[C@@H]1O[C@@H](OCC#Cc2c(-c3ccccc3)oc3ccccc23)CC[C@@H]1NCc1ccccc1,72%,31%,87%,< 4.60,4.75,< 4.60,
,CCCCCCN[C@H]1CC[C@H](OCC#Cc2c(-c3ccccc3)oc3ccccc23)O[C@H]1C,,,,4.84,5.22,4.83,
,C[C@@H]1O[C@@H](OCC#Cc2c(-c3ccccc3)sc3ccccc23)CC[C@@H]1NCc1ccccc1,,,,< 4.60,4.72,< 4.60,
,CCCCN[C@H]1CC[C@H](OCC#Cc2c(-c3ccccc3)sc3ccccc23)O[C@H]1C,,,,4.73,5.15,4.99,
,C[C@@H]1O[C@@H](OCC#Cc2c(-c3ccccc3)oc3ccccc23)CC[C@@H]1N(C)C,,,,5.17,5.21,4.99,
98.6%,CC(=O)N[C@H]1CC[C@H](OCC#Cc2c(-c3ccccc3)oc3ccccc23)O[C@H]1C,,,,4.74,4.88,4.63,
,C[C@@H]1O[C@@H](OCC#Cc2c(-c3ccccc3)oc3ccccc23)CC[C@@H]1NCc1ccco1,77%,24%,70%,< 4.60,4.82,< 4.60,
,Cc1ccc(CN[C@H]2CC[C@H](OCC#Cc3c(-c4ccccc4)oc4ccccc34)O[C@H]2C)cc1,51%,29%,65%,< 4.60,4.92,< 4.60,
,CC(C)CCN[C@H]1CC[C@H](OCC#Cc2c(-c3ccccc3)oc3ccccc23)O[C@H]1C,,,,4.87,5.18,4.95,
,CCN(CC)[C@H]1CC[C@H](OCC#Cc2c(-c3ccccc3)oc3ccccc23)O[C@H]1C,,,,4.97,5.17,5.01,
,C[C@@H]1O[C@@H](OCC#Cc2c(-c3ccccc3)oc3ccccc23)CC[C@@H]1NCc1ccccn1,11%,< 1%,< 1%,4.79,4.97,4.84,
,C[C@@H]1O[C@@H](OCC#Cc2c(-c3ccccc3)sc3ccccc23)CC[C@@H]1NCC#N,,,,4.74,4.97,4.98,
,C[C@@H]1O[C@@H](OCC#Cc2c(-c3ccccc3)oc3ccccc23)CC[C@@H]1NCc1ccc([N+](=O)[O-])cc1,86%,59%,94%,< 4.60,< 4.60,< 4.60,
,COc1ccc(CN[C@H]2CC[C@H](OCC#Cc3c(-c4ccccc4)oc4ccccc34)O[C@H]2C)cc1,31%,8%,12%,4.88,5.10,,31%
,COc1ccc(CN[C@H]2CC[C@H](OCC#Cc3c(-c4ccccc4)sc4ccccc34)O[C@H]2C)cc1,,,,< 4.60,5.21,< 4.60,

Activity (Nucleic Acid),SMILES,viability at 25 µM (MCF7 [1]),viability at 25 µM (HT-29 [2]),viability at 25 µM (HepG2 [3]),pIC50 (HepG2 [4]),pIC50 (HT-29 [5]),pIC50 (MCF7 [6]),cell viability at 25 µM (MCF7 [7])
,CCCCN[C@H]1CC[C@H](OCC#Cc2c(-c3ccccc3)oc3ccccc23)O[C@H]1C,,,,4.72,5.01,4.68,
,CCCCCCN[C@H]1CC[C@H](OCC#Cc2c(-c3ccccc3)sc3ccccc23)O[C@H]1C,,,,4.72,5.29,5.17,
,CCCCN(CCCC)[C@H]1CC[C@H](OCC#Cc2c(-c3ccccc3)sc3ccccc23)O[C@H]1C,,,,< 4.60,< 4.60,< 4.60,
,CCN(CC)[C@H]1CC[C@H](OCC#Cc2c(-c3ccccc3)sc3ccccc23)O[C@H]1C,,,,4.93,5.41,4.92,
,C[C@@H]1O[C@@H](OCC#Cc2c(-c3ccccc3)oc3ccccc23)CC[C@@H]1NCC1CCCCC1,,,,< 4.60,4.99,< 4.60,
,CCN[C@H]1CC[C@H](OCC#Cc2c(-c3ccccc3)sc3ccccc23)O[C@H]1C,,,,5.18,5.47,5.23,
79%,CC(C)N[C@H]1CC[C@H](OCC#Cc2c(-c3ccccc3)oc3ccccc23)O[C@H]1C,,,,4.89,5.24,4.90,
26%,CCN[C@H]1CC[C@H](OCC#Cc2c(-c3ccccc3)oc3ccccc23)O[C@H]1C,,,,5.22,5.24,5.04,
,CC(C)CCN(CCC(C)C)[C@H]1CC[C@H](OCC#Cc2c(-c3ccccc3)oc3ccccc23)O[C@H]1C,,,,< 4.60,< 4.60,< 4.60,
52.9%,C[C@H](N)C(=O)N[C@H]1CC[C@H](OCC#Cc2c(-c3ccccc3)oc3ccccc23)O[C@H]1C,,,,5.39,5.17,5.10,
,C[C@@H]1O[C@@H](OCC#Cc2c(-c3ccccc3)oc3ccccc23)CC[C@@H]1NCc1ccc(O)cc1,2%,< 1%,< 1%,4.87,5.24,4.96,
,CCCCN(CCCC)[C@H]1CC[C@H](OCC#Cc2c(-c3ccccc3)oc3ccccc23)O[C@H]1C,,,,< 4.60,< 4.60,< 4.60,
,C[C@@H]1O[C@@H](OCC#Cc2c(-c3ccccc3)sc3ccccc23)CC[C@@H]1NCc1ccc(O)cc1,,,,4.69,5.29,4.92,
,C[C@@H]1O[C@@H](OCC#Cc2c(-c3ccccc3)sc3ccccc23)CC[C@@H]1N(C)CC#N,,,,4.91,5.21,5.11,
,CN[C@H]1CC[C@H](OCC#Cc2c(-c3ccccc3)sc3ccccc23)O[C@H]1C,,,,5.06,5.27,5.15,
,COc1cc(CN[C@H]2CC[C@H](OCC#Cc3c(-c4ccccc4)oc4ccccc34)O[C@H]2C)cc(OC)c1OC,30%,6%,7%,4.95,5.10,,30%
,C[C@@H]1O[C@@H](OCC#Cc2c(-c3ccccc3)sc3ccccc23)CC[C@@H]1N(C)C,,,,5.00,5.48,5.09,

# From ChEMBL document CHEMBL1770050, “Effect of carbohydrate amino group modifications on the cytotoxicity of glycosylated 2-phenyl-benzo[b]thiophenes and 2-phenyl-benzo[b]furans” (Bioorg Med Chem Lett, 2011)
